{"source": "patent US10065941B2", "about": "“Aminotriazine derivative and pharmaceutical composition comprising the same” (Shionogi & Co., Ltd., priority 2013, dated 2018)", "data": [{"molecular_target": "human P2X3 receptor (Homo sapiens (Human), UniProt P56373)", "sequence (P56373 whole entry)": "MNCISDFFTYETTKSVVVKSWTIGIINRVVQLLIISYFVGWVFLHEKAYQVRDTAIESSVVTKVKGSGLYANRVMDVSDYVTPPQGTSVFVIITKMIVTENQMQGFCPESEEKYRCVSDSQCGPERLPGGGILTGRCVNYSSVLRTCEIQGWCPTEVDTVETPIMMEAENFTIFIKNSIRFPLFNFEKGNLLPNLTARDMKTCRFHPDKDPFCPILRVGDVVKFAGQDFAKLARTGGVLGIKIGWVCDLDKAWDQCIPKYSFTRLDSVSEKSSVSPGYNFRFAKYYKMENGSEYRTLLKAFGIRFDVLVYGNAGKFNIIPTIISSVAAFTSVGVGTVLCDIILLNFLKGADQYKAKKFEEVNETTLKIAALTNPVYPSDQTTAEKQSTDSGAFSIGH", "assay": "Evaluation of human P2X3 receptor inhibitory activity (Test Example 1)", "assay_type": "cell-based", "settings": "C6BU-1 cell transfected with human P2X3 receptor gene, FLIPR 384", "outline": "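C6BU-1 cells stably expressing human P2X3, loaded with 4 μM Fluo-3-AM 1 h at 37 °C, preincubated 5 min with test compound, then stimulated with 150 nM ATP solution (stock, pre-dispense) and monitored by FLIPR for 4 min. IC50 derived from maximum fluorescence ratio (post-ATP peak over baseline).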", "units": {"IC50": "nM"}, "values": [{"smiles": "CCOC(=O)C1(Cn2c(=O)[nH]/c(=N\\c3ccc(Oc4ccccn4)cc3)n(Cc3ccc(Cl)cc3)c2=O)CC1", "note": "[Compound I-192]", "IC50": 5}, {"smiles": "C[C@H](C(=O)O)[C@@H](C)n1c(=O)[nH]/c(=N\\c2ccc(Oc3ccccn3)cc2)n(Cc2ccc(Cl)cc2)c1=O", "note": "[Compound I-152]", "IC50": 6}, {"smiles": "COC(=O)C(C)(C)Cn1c(=O)[nH]/c(=N\\c2ccc(Oc3cncc(Cl)c3)cc2)n(Cc2ccc(Cl)cc2)c1=O", "note": "[Compound R-080]", "IC50": 13}, {"smiles": "O=C(O)C1(Cn2c(=O)[nH]/c(=N\\c3ccc(Oc4ccccn4)cc3)n(Cc3ccc(Cl)cc3)c2=O)CC1", "note": "[Compound I-193]", "IC50": 8}, {"smiles": "COC(=O)[C@H](C)[C@H](C)n1c(=O)[nH]/c(=N\\c2ccc(Oc3cnccn3)c(C)c2)n(Cc2ccc(Cl)cc2)c1=O", "note": "[Compound R-158]", "IC50": 12}, {"smiles": "CCOC(=O)Cn1c(=O)[nH]/c(=N\\c2ccc(Oc3ccc(Cl)cn3)cc2)n(Cc2ccc(Cl)cc2)c1=O", "note": "[Compound R-310]", "IC50": 4}, {"smiles": "CCc1[nH]c2ccc(/N=c3\\[nH]c(=O)n(C[C@H](C)C(=O)OC)c(=O)n3Cc3ccc(Cl)cc3)cc2c1C", "note": "[Compound R-068]", "IC50": 40}, {"smiles": "Cc1ccc(Cn2c(=O)n(CCC(=O)O)c(=O)[nH]/c2=N\\c2ccc(Oc3ccccn3)c(Cl)c2)cc1", "note": "[Compound R-298]", "IC50": 9}, {"smiles": "CCOC(=O)C[C@H](O)Cn1c(=O)[nH]/c(=N\\c2ccc(OC(C)C)c(Cl)c2)n(Cc2ccc(Cl)cc2)c1=O", "note": "[Compound R-171]", "IC50": 33}, {"smiles": "COC(=O)[C@@H](C)Cn1c(=O)[nH]/c(=N\\c2ccc(Oc3ccccn3)cc2)n(Cc2ccc(Cl)cc2)c1=O", "note": "[Compound I-126]", "IC50": 5}, {"smiles": "COc1cncc(Oc2ccc(/N=c3\\[nH]c(=O)n(C[C@H](C)C(=O)O)c(=O)n3Cc3ccc(Cl)cc3)cc2)c1", "note": "[Compound R-201]", "IC50": 8}, {"smiles": "COC(=O)[C@@H](C)Cn1c(=O)[nH]/c(=N\\c2ccc(Oc3ccc(Cl)cn3)cc2)n(Cc2ccc(C)cc2)c1=O", "note": "[Compound I-097]", "IC50": 5}, {"smiles": "C[C@@H](Cn1c(=O)[nH]/c(=N\\c2ccc(Oc3nc4ncccc4o3)cc2)n(Cc2ccc(Cl)cc2)c1=O)C(=O)O", "note": "[Compound R-204]", "IC50": 8}, {"smiles": "COC(=O)[C@@H](C)Cn1c(=O)[nH]/c(=N\\c2ccc(Oc3ccncc3)cc2)n(Cc2ccc(Cl)cc2)c1=O", "note": "[Compound R-206]", "IC50": 5}, {"smiles": "COC(=O)[C@@H](C)Cn1c(=O)[nH]/c(=N\\c2ccc(Oc3ccc(F)cn3)cc2)n(Cc2ccc(Cl)s2)c1=O", "note": "[Compound I-272]", "IC50": 8}, {"smiles": "COC(=O)[C@H](C)[C@H](C)n1c(=O)[nH]/c(=N\\c2ccc(Oc3ncc(C)s3)cc2)n(Cc2ccc(Cl)cc2)c1=O", "note": "[Compound R-182]", "IC50": 26}, {"smiles": "COC(=O)C(C)(C)Cn1c(=O)[nH]/c(=N\\c2ccc(Oc3ccccn3)c(F)c2)n(Cc2ccc(Cl)cc2)c1=O", "note": "[Compound I-227]", "IC50": 31}, {"smiles": "C[C@@H](Cn1c(=O)[nH]/c(=N\\c2ccc(Oc3cccc(F)n3)cc2)n(Cc2ccc(C(F)F)cc2)c1=O)C(=O)O", "note": "[Compound I-168]", "IC50": 12}, {"smiles": "COC(=O)C(C)(C)Cn1c(=O)[nH]/c(=N\\c2ccc(Oc3noc(C)n3)cc2)n(Cc2ccc(Cl)cc2)c1=O", "note": "[Compound R-113]", "IC50": 13}, {"smiles": "CC(C)(Cn1c(=O)[nH]/c(=N\\c2ccc(Oc3cnc(C(F)(F)F)cn3)cc2)n(Cc2ccc(Cl)cc2)c1=O)C(=O)O", "note": "[Compound R-176]", "IC50": 7}, {"smiles": "COC(=O)[C@@H](C)Cn1c(=O)[nH]/c(=N\\c2ccc(Oc3ccccn3)cc2)n(CC2CC3(CCC3)C2)c1=O", "note": "[Compound I-268]", "IC50": 3}, {"smiles": "O=c1[nH]/c(=N\\c2ccc(Oc3ccccn3)cc2)n(Cc2ccc(Cl)cc2)c(=O)n1CCO", "note": "[Compound R-257, 1-(4-chlorobenzyl)-3-(2-hydroxyethyl)-6-[4-(2-pyridyloxy)phenylimino]-1,3,5-triazinane-2,4-dione]", "IC50": 10}, {"smiles": "C[C@@H](Cn1c(=O)[nH]/c(=N\\c2ccc(Oc3ccc(F)cn3)cc2)n(Cc2ccc(C(F)F)cc2)c1=O)C(=O)O", "note": "[Compound I-167]", "IC50": 19}, {"smiles": "COC(=O)[C@@H](C)Cn1c(=O)[nH]/c(=N\\c2ccc(N3CCCCC3)c(F)c2)n(Cc2ccc(Cl)cc2)c1=O", "note": "[Compound R-140]", "IC50": 37}, {"smiles": "COC(=O)C[C@@H](C)n1c(=O)[nH]/c(=N\\c2ccc(Oc3ccccn3)cc2)n(Cc2ccc(C)cc2)c1=O", "note": "[Compound I-186]", "IC50": 5}, {"smiles": "O=c1[nH]/c(=N\\c2ccc(Oc3ccccn3)cc2)n(Cc2ccc(Cl)cc2)c(=O)n1CC(O)(CO)CO", "note": "[Compound R-255, 1-(4-chlorobenzyl)-3-(2-hydroxymethyl-2,3-dihydroxypropyl)-6-[4-(2-pyridyloxy)phenylimino]-1,3,5-triazinane-2,4-dione]", "IC50": 5}, {"smiles": "COC(=O)C(C)Cn1c(=O)[nH]/c(=N\\c2ccc(Oc3ccc(OC(F)F)cn3)cc2)n(Cc2ccc(Cl)cc2)c1=O", "note": "(stereo not shown) [Compound R-026]", "IC50": 8}, {"smiles": "COC(=O)[C@H](C)[C@H](C)n1c(=O)[nH]/c(=N\\c2ccc(Oc3cc(Cl)ccn3)cc2)n(Cc2ccc(Cl)cc2)c1=O", "note": "[Compound I-087]", "IC50": 107}, {"smiles": "Cc1ccc(Cn2c(=O)n(C[C@H](C)C(=O)O)c(=O)[nH]/c2=N\\c2ccc(Oc3ccnc(F)c3)cc2)cc1", "note": "[Compound R-223]", "IC50": 7}, {"smiles": "CCOC(=O)[C@H]1C[C@@H](n2c(=O)[nH]/c(=N\\c3ccc(Oc4ncccc4F)cc3)n(Cc3ccc(Cl)cc3)c2=O)C1", "note": "[Compound I-062]", "IC50": 31}, {"smiles": "COC(=O)C[C@@H](C)n1c(=O)[nH]/c(=N\\c2ccc(Oc3cccc(F)n3)cc2)n(Cc2ccc(Cl)cc2)c1=O", "note": "[Compound I-158]", "IC50": 6}, {"smiles": "C[C@@H](Cn1c(=O)[nH]/c(=N\\c2ccc(Oc3ccccn3)c(Cl)c2)n(Cc2ccc(Cl)cc2)c1=O)C(=O)O", "note": "[Compound I-243]", "IC50": 7}, {"smiles": "Cc1cc(/N=c2\\[nH]c(=O)n(C[C@H](C)C(=O)O)c(=O)n2Cc2ccc(Cl)cc2)ccc1Oc1cncc(F)c1", "note": "[Compound R-116]", "IC50": 5}, {"smiles": "O=c1[nH]/c(=N\\c2ccc(Oc3ccccn3)cc2)n(Cc2ccc(Cl)cc2)c(=O)n1C[C@@H](O)CO", "note": "[Compound R-250]", "IC50": 9}, {"smiles": "COCc1cccc(Oc2ccc(/N=c3\\[nH]c(=O)n(C[C@H](C)C(=O)OC)c(=O)n3Cc3ccc(C)cc3)cc2)n1", "note": "[Compound I-250]", "IC50": 31}, {"smiles": "COC(=O)[C@H](C)[C@H](C)n1c(=O)[nH]/c(=N\\c2ccc(Oc3ccnc(Cl)c3)cc2)n(Cc2ccc(Cl)cc2)c1=O", "note": "[Compound R-150]", "IC50": 18}, {"smiles": "C[C@@H](Cn1c(=O)[nH]/c(=N\\c2ccc(O[C@H](C)C(F)(F)F)c(O[C@H](C)C(F)(F)F)c2)n(Cc2ccc(Cl)cc2)c1=O)C(=O)O", "note": "[Compound R-094]", "IC50": 29}, {"smiles": "O=C(O)C[C@H](O)Cn1c(=O)[nH]/c(=N\\c2ccc(Oc3ccc(F)cn3)cc2)n(Cc2ccc(Cl)cc2)c1=O", "note": "[Compound I-090]", "IC50": 72}, {"smiles": "COC(=O)[C@@H](C)Cn1c(=O)[nH]/c(=N\\c2ccc(Oc3cccc(Cl)n3)cc2)n(Cc2ccc(C)cc2)c1=O", "note": "[Compound I-115]", "IC50": 6}, {"smiles": "COC(=O)[C@H](C)[C@H](C)n1c(=O)[nH]/c(=N\\c2ccc(Oc3ccc(F)cn3)c(F)c2)n(Cc2ccc(Cl)cc2)c1=O", "note": "[Compound I-001]", "IC50": 44}, {"smiles": "COC(=O)[C@H](C)[C@H](C)n1c(=O)[nH]/c(=N\\c2ccc(Oc3ccccn3)c(F)c2)n(Cc2ccc(Cl)cc2)c1=O", "note": "[Compound I-228]", "IC50": 21}, {"smiles": "COC(=O)C[C@@H](C)n1c(=O)[nH]/c(=N\\c2ccc(Oc3ncccc3F)cc2)n(Cc2ccc(Cl)cc2)c1=O", "note": "[Compound I-161]", "IC50": 10}, {"smiles": "COC(=O)C(C)(C)Cn1c(=O)[nH]/c(=N\\c2ccc(Oc3cc(Cl)ncn3)cc2)n(Cc2ccc(Cl)cc2)c1=O", "note": "[Compound R-047]", "IC50": 9}, {"smiles": "CC(C)(Cn1c(=O)[nH]/c(=N\\c2ccc(Oc3cccnn3)c(F)c2)n(Cc2ccc(Cl)cc2)c1=O)C(=O)O", "note": "[Compound R-038]", "IC50": 7}, {"smiles": "N#Cc1ccc(Oc2ccc(/N=c3\\[nH]c(=O)n(CC(=O)O)c(=O)n3Cc3ccc(Cl)cc3)cc2)nc1", "note": "[Compound R-314]", "IC50": 48}, {"smiles": "Cc1ccnc(Oc2ccc(/N=c3\\[nH]c(=O)n(C[C@H](C)C(=O)O)c(=O)n3Cc3ccc(Cl)cc3)cc2)c1", "note": "[Compound I-080]", "IC50": 10}, {"smiles": "COC(=O)[C@H](C)[C@H](C)n1c(=O)[nH]/c(=N\\c2ccc(Oc3cnccn3)cc2)n(Cc2ccc(Cl)cc2)c1=O", "note": "[Compound R-167]", "IC50": 11}, {"smiles": "Cc1ccc(Cn2c(=O)n(C[C@H](C)C(=O)O)c(=O)[nH]/c2=N\\c2ccc(Oc3ncccc3F)cc2)cc1", "note": "[Compound I-056]", "IC50": 7}, {"smiles": "COC(=O)CCn1c(=O)[nH]/c(=N\\c2ccc(Oc3ccc(C(C)O)cn3)cc2)n(Cc2ccc(Cl)cc2)c1=O", "note": "(stereo not shown) [Compound R-304]", "IC50": 4}, {"smiles": "COC(=O)[C@@H](C)Cn1c(=O)[nH]/c(=N\\c2ccc(N3CCCCC3)c(C)c2)n(Cc2ccc(Cl)cc2)c1=O", "note": "[Compound R-138]", "IC50": 78}, {"smiles": "COC(=O)[C@H](C)[C@H](C)n1c(=O)[nH]/c(=N\\c2ccc(Oc3cncc(F)c3)c(F)c2)n(Cc2ccc(Cl)cc2)c1=O", "note": "[Compound R-187]", "IC50": 21}, {"smiles": "C[C@@H](Cn1c(=O)[nH]/c(=N\\c2ccc(O[C@H](C)C(F)(F)F)c(F)c2)n(Cc2ccc(Cl)cc2)c1=O)C(=O)O", "note": "[Compound R-093]", "IC50": 13}, {"smiles": "C[C@@H](C(=O)O)[C@H](C)n1c(=O)[nH]/c(=N\\c2ccc(Oc3cc(F)nc(F)c3)cc2)n(Cc2ccc(Cl)cc2)c1=O", "note": "[Compound R-157]", "IC50": 6}, {"smiles": "Cc1cccnc1Oc1ccc(/N=c2\\[nH]c(=O)n(CC(C)(C)C(=O)O)c(=O)n2Cc2ccc(Cl)cc2)cc1", "note": "[Compound I-078]", "IC50": 19}, {"smiles": "Cc1ccc(Cn2c(=O)n(C[C@H](C)C(=O)O)c(=O)[nH]/c2=N\\c2ccc(Oc3ccc(C(C)O)cn3)cc2)cc1", "note": "(stereo partly shown) [Compound I-262]", "IC50": 7}, {"smiles": "COC(=O)[C@@H](C)Cn1c(=O)[nH]/c(=N\\c2ccc(Oc3ccccn3)cc2)n(C[C@H]2CC[C@H](C)CC2)c1=O", "note": "[Compound I-142]", "IC50": 7}, {"smiles": "Cc1ccc(Cn2c(=O)n(CCC(=O)O)c(=O)[nH]/c2=N\\c2ccc(Oc3ccccn3)c(F)c2)cc1", "note": "[Compound R-280]", "IC50": 9}, {"smiles": "Cc1cc(/N=c2\\[nH]c(=O)n([C@@H](C)[C@@H](C)C(=O)O)c(=O)n2Cc2ccc(Cl)cc2)ccc1Oc1ccccn1", "note": "[Compound I-220]", "IC50": 10}]}]}
